According to patent US20110059909A1, “METHODS FOR TREATING INFLAMMATORY DISORDERS” (priority 2004, published 2011):
Values belong to the compound of their own block, whether it stands above or below them.

What was measured:
[1] = test system: GFAP; test: GFAP mRNA (real time PCR) and protein (immunoblot) in TNFα-stimulated primary astrocytes; type: cell-based, rat; details: TNFα 1 ng/ml; mRNA 8 h, protein 18 h
Method: (§1) For iNOS protein, the cells were washed with cold Tris buffered saline (TBS; 20 mM Trizma base, and 137 mM NaCl, pH 7.5), lysed in 1×SDS sample loading buffer (62.5 mM Trizma base, 2% w/v SDS, 10% glycerol), following sonication and centrifugation at 15,000×g for 5 min, the supernatant was used for the iNOS western immunoblot assay. The protein concentration of samples was determined with the detergent compatible protein assay reagent (Bio-Rad Laboratories, CA) using bovine serum albumin (BSA) as the standard. Sample was boiled for 3 min with 0.1 volumes of 10% β-mercaptoethanol and 0.5% bromophenol blue mix. Fifty μg of total cellular protein was resolved by electrophoresis on 8 or 12% polyacrylamide gels, electro-transferred to polyvinylidene difluoride (PVDF) filter and blocked with Tween 20 containing Tris-buffered saline (TBST; 10 mM Trizma base-pH 7.4, 1% Tween 20, and 150 mM NaCl) with 5% skim milk. After incubation with antiserum against iNOS (BD PharMingen, CA), rat GalT-2 (Abjent Inc., CA), H-Ras (Upstate Biotechnology, CA), GFAP (Santa Cruz Biotech, CA), or phospho-specific ERK1/2 (Cell signaling Tech Inc., MA), or pIκ-B (Signal Transduction), in PVDF buffer for 2 h at room temperature, the filters were washed 3 times with TBST buffer and then incubated with horseradish peroxidase conjugated anti-rabbit or mouse IgG for 1 h. The membranes were detected by autoradiography using ECL-plus (Amersham Pharmacia Biotech) after washing with TBST buffer.

[2] = test system: GalT-2; test: GalT-2 activity assay on cell lysates; type: cell-based, rat; details: LY pretreatment
Method: The activity of GalT-2 was measured using [^3H]UDP-galactose as the galactose donor and GlcCer as the acceptor as described previously (Yeh et al., 2001). Briefly, cells were harvested in PBS and cell pellets were suspended in Triton X-100 lysis buffer. Cell lysates were sonicated and following protein quantification, 100 μg of cell lysate was added to reaction mixture containing […] of cacodylate buffer (pH 6.8), 1 mM Mn/Mg, 0.2 mg/ml Triton X-100 (1:2 v/v), 30 nmol of GluCer and […] of UDP-[^3H]galactose in a total volume of 100 μl. The reaction was terminated by adding 10 μl of 0.25M EDTA, 10 μl of 0.5M KCl and 500 μl of Chloroform/Methanol (2:1 v/v) and the products were separated by centrifugation. The lower phase was collected and dried under nitrogen. Following resolution on HPTLC plates, the gel was cut out and radioactivity was measured in a scintillation counter. Assay without exogenous GluCer served as blank and their radioactivity counts were subtracted from all respective data points.

[3] = test system: rat primary astrocytes; test: BrdU incorporation assay, proliferation of primary astrocytes; type: cell-based; details: pretreated 0.5 h (AS: 48 h after transfection), TNFα 1 ng/ml 18 h, BrdU incorporation
Method: Primary astrocyte-enriched cultures were prepared from the whole cortex of one day old Sprague-Dawley rats as described earlier (Pahan et al., 1998b). Briefly, the cortex was rapidly dissected in ice-cold calcium/magnesium free Hanks Balanced Salt Solution (HBSS) (Gibco, Grand Island, N.Y.) at pH 7.4 as described previously (Won et al., 2001). The tissue was then minced, incubated in HBSS containing trypsin (2 mg/ml) for 20 min and washed twice in plating medium containing 10% FBS and 10 μg/ml gentamicin, and then disrupted by triturating through a Pasteur pipette following which cells were seeded in 75-cm^2 culture flasks (Falcon, Franklin, N.J.). After incubation at 37° C. in 5% CO2 for 1 day, the medium was completely changed to the culture medium (DMEM containing 5% FBS and 10 μg/ml gentamicin). The cultures received half exchanges with fresh medium twice a week. After 14-15 days the cells were shaken for at least 24 h on an orbital shaker to remove the microglia and then seeded on multi-well tissue culture dishes. The cells were incubated with serum-free DMEM for 24 h prior to the incubation with drugs.
Proliferation of primary astrocytes was assayed by using the Cell proliferation ELISA, BrdU colorimetric assay kit (Roche, Germany) according to manufacturer's protocol. Briefly, cells were seeded in 96 well plates in quadruplicate and following overnight serum starvation were stimulated with mitogenic stimulants. 2 h before termination of proliferation assay, BrdU (10 μM) was added to each well following which cells were fixed and levels of incorporated BrdU were assayed by using a conjugated anti-BrdU enzyme. Colorimetric analysis was done by measuring absorbance at 370 nm using a spectramax MAX 190 (Molecular devices) multi-well plate reading spectrophotometer.

[4] = test system: ERK1/2; test: ERK1/2 activation (phospho-ERK1/2 immunoblot) in primary astrocytes; type: cell-based, rat; details: pretreated 0.5 h, TNFα 20 min
Method: as §1

[5] = test system: small GTPase Ras; test: Quantification of Ras activation (GST-Raf-1 RBD pull-down) in primary astrocytes; type: cell-based, rat; details: pretreated 0.5 h, TNFα
Method: After stimulation, primary astrocytes in 6-well plates were washed with ice cold PBS and lysed in membrane lysis buffer (MLB; 0.5 ml of 25 mM HEPES, pH 7.5, 150 mM NaCl, 1% Igepal CA-630, 0.25% sodium deoxycholate, 10% glycerol, 10 mM MgCl2, 1 mM EDTA, 25 mM NaF, 1 mM of sodium orthovanadate, and EDTA free Complete™ protease inhibitor cocktail). After centrifugation (5,000×g) at 4° C. for 5 min, supernatant was used for Ras activation assay. One hundred μg of supernatant was used for binding with agarose conjugated Ras-binding domain (RBD) of Raf-1 which was expressed in BL21 (Invitrogen), Escherichia coli strain, transformed by pGEX-2T-GST-RBD in the presence of 0.1 mM of IPTG as described previously (Herrmann et al., 1995). The binding reaction was performed at 4° C. for 30 min in MLB. Following washing with MLB three times, Ras-RBD complex were denatured by adding of 2×SDS sample buffer. Ras protein was identified by western blot analysis with Ras antibodies from Upstate Biotechnology.

[6] = biological target: T1, LacCer synthase (GalT-2) (Rattus norvegicus, UniProt O88419); test: Measurement of [14C]LacCer synthesis in primary astrocytes (HPTLC); type: cell-based; details: TNFα 1 ng/ml
T1 construct: using cell lysates derived from cells stimulated with LPS/IFNγ; endogenous in cells; host or cells: rat primary astrocytes
T1 sequence (O88419 1-382): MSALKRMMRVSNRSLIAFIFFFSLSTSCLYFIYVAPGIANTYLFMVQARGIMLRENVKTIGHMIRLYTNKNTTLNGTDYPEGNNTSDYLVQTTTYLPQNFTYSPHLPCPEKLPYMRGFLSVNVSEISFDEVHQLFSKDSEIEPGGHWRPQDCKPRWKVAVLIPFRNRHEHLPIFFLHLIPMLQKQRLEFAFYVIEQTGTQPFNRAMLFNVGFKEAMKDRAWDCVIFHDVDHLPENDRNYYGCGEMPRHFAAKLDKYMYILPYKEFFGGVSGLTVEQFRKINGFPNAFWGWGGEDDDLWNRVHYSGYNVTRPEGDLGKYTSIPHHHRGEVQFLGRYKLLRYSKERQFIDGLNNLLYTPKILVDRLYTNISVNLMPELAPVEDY
Method: Cultured cells were incubated in growth medium containing [^14C]galactose (5 μCi/ml) for 24 h as described previously. The medium was removed, and the cell monolayer was washed with sterile PBS. After the stimulation with LPS/IFNγ (1 μg/ml; 10 U/ml) for various durations, cells were then harvested and washed with ice cold PBS and lysed by sonication. 200 μg of protein was used for extraction of lipids using Chloroform:Methanol:HCl (100:100:1). The organic phase was dried under nitrogen. Glycosphingolipids were resolved by high performance thin layer chromatography using chloroform/methanol/0.25% KCl (70:30:4, v/v/v) as the developing solvent. The gel area corresponding to LacCer was scraped, and radioactivity was measured employing “liquiscint” (NEN Life Science Products) as a scintillating fluid.

[7] = test system: mice; details: cited from earlier work
[8] = test system: primary cultured rat neocortical explants; details: cited from earlier work
[9] = test system: primary cultured rat neocortical explants; details: cited from earlier work; remark: listed apart in the source
[10] = test system: X-ALD patients; details: cited from earlier work

TNFα-induced Ras activation [5]: inhibited
[14C]LacCer synthesis upon TNFα-stimulation [6]: inhibited
Structure (SMILES): O=c1cc(N2CCOCC2)oc2c(-c3ccccc3)cccc12 [LY, 2-(4-Morpholinyl)-8-phenyl-4H-1-benzopyran-4-one]
TNFα-induced GFAP mRNA and protein expression [1]: inhibited
TNFα-induced GalT-2 activation [2]: inhibition
TNFα-induced astrocyte proliferation [3]: significantly attenuated
TNFα-induced ERK1/2 phosphorylation [4]: inhibited

Structure (SMILES): CCCCCCCCCC(=O)N[C@@H](CN1CCOCC1)[C@@H](O)c1ccccc1 [L-threo PDMP]
LD50 values, L-threo PDMP compared to D-threo PDMP [7]: higher
Neurite outgrowth [8]: stimulated
GSL biosynthesis [9]: stimulated

Structure (SMILES): CCCCCCCC/C=C\CCCCCCCC(=O)OCC(COC(=O)CCCCCCC/C=C\CCCCCCCC)OC(=O)CCCCCCC/C=C\CCCCCCCC [trioleate]
Reduction of VLCFA [10]: 50%
